Earlier results in patent US4771122A, “Novel cyclosporins” (Sandoz Ltd., priority 1985, dated 1988).

Conditions: reported in literature

Question: For [(D)Pro]^3 -Cyclosporine, which immunosuppressive activity is on record?
Answer: substantially lacking in immunosuppressive activity
